Test [1] relates to fibrosarcoma cell line HT1080. The experiment in a line: 2HG inhibition assay on fibrosarcoma cell line HT1080 (LC-MS/MS). Format: cell-based, Human. The settings on record: HT-1080 cells, 48 h incubation, read-out: HT1080 2HG Inhibitory IC50. How it is done:
In this experiment, the inhibitory activity of the compounds of the present invention against the 2HG concentration level of fibrosarcoma cell line HT1080 was measured by the following method.
Different concentrations of compounds were added and incubated for 48 h. HT-1080 cells were trypsinized and collected, and centrifuged at 500 g for 5 min. The supernatant was discarded, and the cells were resuspended in 1 ml of PBS and the number of cells per sample was counting by a counter (Beckman coulter Z2, Beckman) and adjusted to be the same. After centrifuged at 500 g for 5 min, the supernatant was discarded, and the cell pellet was stored in a refrigerator at −80° C. for 2HG detection.
Sample Treatment: an ice acetonitrile solution containing 200 μL of verapamil (internal standard) was added to sample tubes respectively, vortexed for 1 min, and placed in a refrigerator at 4° C. for 20 min to lyse the cells. 100 μL of sample was taken, another 100 μL of lysate was taken in a 96-well plate and dried with a nitrogen blower, and 100 μL of water was added and vortexed to be uniform.
1. Derivatization: 100 μL of o-benzylhydroxylamine hydrochloride derivatization reagent was added and shaken on a shaker for 1 h to complete the derivatization reaction.
2. Solution extraction: 300 μL of ethyl acetate was added separately, shaken for 20 min, centrifuged at 1900 rpm for 5 min, and placed in a refrigerator at −70° C. for 40 min. All the ethyl acetate was taken up to another sample plate, and dried with a nitrogen blower. 150 μL MEOH/H2O (v/v, 1/1) was added for reconstitution.
3. Bioanalysis: All of the above samples were analyzed by LC-MS/MS (Waters ACQUITY H-Class System, Waters/AB6500, Sciex) after centrifuged at 4000 rpm for 10 min.
The inhibition rate of the sample was obtained by the following formula: […]
IC50 values were calculated using GraphPad Prism software.

Test [2] addresses IDH1 R132H (Homo sapiens (Human), UniProt O75874, R132H). The experiment in a line: Effect on the enzyme activity of IDH1 at the molecular level (NADPH consumption, diaphorase/resazurin). Format: biochemical. Particulars: α-KG 1 mM, NADPH 4 μM, 60 min room temperature. How it is done: The enzyme used in the experiment was purchased from cayman Co.
The substrates α-KG, NADPH and Diaphorase were purchased from Sigma; Resazurin was purchased from J&K; and the remaining reagents were purchased from Sinopharm Chemical Reagent Co., Ltd.
Compound preparation: Compound 12000 g was centrifuged for 5 min, DMSO was added to prepare 10 mM, which was vortexed, then ultrasonic treatment for 10 minutes, and stored at −40° C. The stock solution was diluted firstly with DMSO to a 10 μM solution when tested and then gradient-diluted for 3 times to a different test concentration.
Test method: The enzyme activity of IDH1 to convert α-KG to 2HG was measured by the consumption of NADPH. After the enzymatic reaction was completed, a catalytic excess of diaphorase and reazurin were added, and the resulting fluorescent signal could reflect the amount of remaining NADPH. […] IC50 values were calculated using GraphPad Prism software.

Where two headings read alike, the source gives them in different places. A value given as a limit tells only on which side of the number the result lay.

The term IC50 denotes the concentration at which inhibition is half-maximal.

IDH1 R132H, sequence (O75874 whole entry R132H): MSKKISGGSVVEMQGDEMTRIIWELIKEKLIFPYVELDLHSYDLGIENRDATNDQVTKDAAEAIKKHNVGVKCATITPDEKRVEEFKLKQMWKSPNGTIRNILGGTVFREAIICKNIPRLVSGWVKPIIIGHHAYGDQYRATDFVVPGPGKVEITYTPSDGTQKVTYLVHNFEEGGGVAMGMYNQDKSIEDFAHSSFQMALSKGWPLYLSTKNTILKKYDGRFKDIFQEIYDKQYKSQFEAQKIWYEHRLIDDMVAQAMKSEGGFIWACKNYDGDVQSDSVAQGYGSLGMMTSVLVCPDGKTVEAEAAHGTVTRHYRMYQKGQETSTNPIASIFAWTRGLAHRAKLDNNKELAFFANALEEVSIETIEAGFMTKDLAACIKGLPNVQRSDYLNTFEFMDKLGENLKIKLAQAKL

Regarding `CC(C)[C@H]1C(C)N(C)C(=O)N1c1ccnc(N[C@@H](C)c2cn(-c3ccc(C(F)(F)F)cc3)cn2)n1` (single isomer, unassigned) [Compound 94], the IC50 in test [1] (Homo sapiens, HT-1080, 48 h) was less than 0.01 µM; in test [2], less than 0.1 µM.
For `CC(C)[C@H]1C(C)N(C)C(=O)N1c1ccnc(N[C@@H](C)c2cn(-c3ccc(C(F)(F)F)cc3)cn2)n1` (single isomer, unassigned) [Compound 95], the IC50 in test [1] was less than 0.01 µM; in test [2], less than 0.1 µM.
With `CC(C)[C@H]1C(C)N(C)C(=O)N1c1ccnc(N[C@@H](C)c2cn(-c3ccc(Cl)cc3)cn2)n1` (single isomer, unassigned) [Compound 90], the half-maximal inhibitory concentration (IC50) was 0.024 µM in test [1] (Homo sapiens, HT-1080, 48 h) and less than 0.1 µM in test [2].
On to `CC(C)[C@H]1C(C)NC(=O)N1c1ccnc(N[C@@H](C)c2cn(-c3ccc(C(F)(F)F)cc3)cn2)n1` (single isomer, unassigned) [Compound 92], for which the IC50 in test [1] (Homo sapiens, HT-1080, 48 h) is 0.033 µM; in test [2] it was less than 0.1 µM.
Take `CC(C)[C@H]1C(C)N(C)C(=O)N1c1ccnc(N[C@@H](C)c2cn(-c3ccc(Cl)cc3)cn2)n1` (single isomer, unassigned) [Compound 91]: the values for the IC50 in test [1] and in test [2] were 0.012 µM and less than 0.1 µM, respectively.
On the same counts, the results for `CC(C)[C@H]1C(C)NC(=O)N1c1ccnc(N[C@@H](C)c2cn(-c3ccc(Cl)cc3)cn2)n1` (single isomer, unassigned) [Compound 87] are 0.029 µM and less than 0.1 µM.
On the same counts, the results for `CC(C)[C@H]1C(C)NC(=O)N1c1ccnc(N[C@@H](C)c2cn(-c3ccc(C(F)(F)F)cc3)cn2)n1` (single isomer, unassigned) [Compound 93] are 0.0345 µM and less than 0.1 µM.
Take `CC(C)[C@H]1C(C)NC(=O)N1c1ccnc(N[C@@H](C)c2cn(-c3ccc(Cl)cc3)cn2)n1` (single isomer, unassigned) [Compound 86]: the values for the IC50 in test [1] and in test [2] were 0.066 µM and less than 0.1 µM, respectively.
